Experimental data from patent publication US11020468B2, “Compositions, methods and therapies for administering antigen peptide” (priority 2010, dated 2021).

Columns and labels:
P. acnes (ATCC6919) = experiment: Anti-inflammatory effect of peptides against intradermic inflammation caused by P. acnes in mice; format: in vivo, Balb/c mice; details: for anti-inflammatory effect against inflammation caused by P. acnes: vs PBS
Protocol: Living bacterial cells of P. acnes were put in a deaerated physiological saline while keeping an anaerobic condition to prepare a suspension with the number of the living bacterial cells of P. acnes of 5×10^7 cells/ml, 1×10^8 cells/ml, or 5×10^8 cells/ml. The anaerobic condition was kept by spraying a nitrogen gas. The number of the living bacterial cells of P. acnes was calculated based on the assumption that OD measurement value of 0.98-1.02 at 550 nm measured by a spectrophotometer corresponds to 5×10^8 cells/ml, with reference to Ramstad S. et al., Photochem. Photobiol. Sci., 2006, 5, 66-72.
50 μl of the prepared suspension of P. acnes was intradermically injected into shaven abdominal midlines, neck portions, lumbar dorsal portions, tail root dorsal portions, and auricles of male Balb/c mice (9-10 weeks old). The inflammatory areas (major axis×minor axis: mm^2) at individual portions to which the suspension was injected intradermically were measured at predetermined times. Each group consisted of five individuals.
Accordingly, the anti-inflammatory effects of individual peptides were determined under the same conditions, i.e. by intradermically injecting 50 μl of P. acnes (5×10^8 cells/ml) into the abdominal midline and measuring the inflammatory area (mm^2) five days after the injection. FIG. 3 illustrates the procedure for examining the anti-inflammatory effect.
(§1) FIG. 3 is a drawing schematically illustrating the procedure for examining the anti-inflammatory effect. […] Then, P. acnes was intradermically injected into the abdominal midlines of the mice, and the inflammatory areas were measured 5 days after the injection (Day “23” in FIG. 3). Each group consisted of 10 mice. As Comparative Examples, there were prepared a group of mice to which PBS without PepA was administered and a group of mice to which PepB or PepC was administered instead of PepA, and P. acnes was injected into the groups similarly.
The anti-inflammatory effects of individual peptides were examined using an inflammation causing system under the same conditions as in Example 4 except that the peptides to be administered to mice before injection of P. acnes were changed from PepA, PepB, and PepC to PepA and PepD.

[1] = system: acne-patient-derived P. acnes (patient strains 1-3); experiment: Anti-inflammatory effect of PepA against inflammation caused by patient-derived P. acnes in mice; format: in vivo; details: for P (inflammatory area compared with control group given PBS): 5 days after injection
Protocol: as §1
The anti-inflammatory effect of PepA was examined by the same procedure as in Example 5 except that bacterial cells of P. acnes to be injected into mice were the acne-patient-derived bacterial cells of P. acnes which were isolated in Example 6.
FIG. 7 is a graph showing the result of intradermically injecting, after immunization by PepA, the patient strains 1-3 (P1-P. acnes to P3-P. acnes) to the abdominal midlines of mice and measuring inflammatory areas of the mice 5 days after the injection.

[2] = Example 5, same conditions as Example 4
[3] = Example 4, 40 μg/50 μl intradermal, three times, area 5 days after P. acnes injection into abdominal midline
[4] = Example 4, 40 μg/50 μl intradermal, three times, area 5 days after injection

Sequence | P (inflammatory area compared with control group given PBS) (P. acnes (ATCC6919); [2]) | anti-inflammatory effect against inflammation caused by P. acnes (P. acnes (ATCC6919); [2]) | P (inflammatory area compared with control group given PBS) (P. acnes (ATCC6919); [3]) | anti-inflammatory effect against inflammation caused by P. acnes (P. acnes (ATCC6919); [4]) | anti-inflammatory effect against injection of patient strains ([1]; each of patient strains 1-3, vs PBS) | P (inflammatory area compared with control group given PBS) ([1]; patient strain 1) | P (inflammatory area compared with control group given PBS) ([1]; patient strain 2) | P (inflammatory area compared with control group given PBS) ([1]; patient strain 3)
KDADKDNPTYQKV (Propionibacterium acnes) [PepD, residues 260-272 of P. acnes membrane protein YP_056445] | 0.00175 | statistically significantly reduced inflammatory area |  |  |  |  |  | 
AIQEKYGDDRERAG (Propionibacterium acnes) [PepA, residues 90-103 of P. acnes membrane protein AAT84059] | 0.0012 | statistically significantly reduced inflammatory area | 0.00865 | statistically significantly reduced inflammatory area | statistically significantly reducing an inflammatory area | 0.0252 | 0.0476 | 0.0237
GRKPDTNKRSWHRKASR [PepB, reference compound] |  |  | 1 | do not exhibit the anti-inflammatory effect |  |  |  | 
IDQVREYRHRDDDDDEDPGEDG [PepC, reference compound] |  |  | 0.1655 | do not exhibit the anti-inflammatory effect |  |  |  | 
